Values of other authors as cited in paper PMC11904481 (ESMO Open, 2025).

Tested on: ERK1/2
Conditions: cell lines; cited from earlier work

Which “inhibition of signaling following washout” value does the source give for O=C1Nc2cc3[nH]nc(-c4ccncc4)c3cc2CN1Cc1ccccc1 [KO-947] here?
Its value is over 4 h.
